What all share (assay type): functional
For assay [1], the system named is Mus musculus. As to the kind of experiment: Antiinflammatory activity in CD1 mouse model of TPA-induced ear edema assessed as inhibition of ear edema at 2 mg/ear administered topically after TPA challenge for 30 mins and measured after 6 hrs post administration relative to control.
The subject of assay [2] is Mus musculus. As to the kind of experiment: Antiinflammatory activity in CD1 mouse model of TPA-induced ear edema assessed as ear edema formation at 2 mg/ear administered topically after TPA challenge for 30 mins and measured after 6 hrs post administration (reference value: 17.61 to 19.82 mg).
Assay [3] deals with Mus musculus. As to the kind of experiment: Antiinflammatory activity in CD1 mouse model of TPA-induced ear edema assessed as inhibition of ear edema at 1 mg/ear administered topically after TPA challenge for 30 mins and measured after 6 hrs post administration relative to control.
Assay [4] deals with Mus musculus. As to the kind of experiment: Antiinflammatory activity in CD1 mouse model of TPA-induced ear edema assessed as reduction in ear edema formation administered topically after TPA challenge for 30 mins and measured after 6 hrs post administration.
For assay [5], the system named is Mus musculus. As to the kind of experiment: Antiinflammatory activity in CD1 mouse model of TPA-induced ear edema assessed as ear edema formation at 1 mg/ear administered topically after TPA challenge for 30 mins and measured after 6 hrs post administration (reference value: 17.61 to 19.82 mg).
Assay [6] deals with Mus musculus. As to the kind of experiment: Antiinflammatory activity in CD1 mouse model of TPA-induced ear edema assessed as inhibition of ear edema at 0.5 mg/ear administered topically after TPA challenge for 30 mins and measured after 6 hrs post administration relative to control.
Assay [7] relates to Mus musculus. As to the kind of experiment: Antiinflammatory activity in CD1 mouse model of TPA-induced ear edema assessed as ear edema formation at 0.5 mg/ear administered topically after TPA challenge for 30 mins and measured after 6 hrs post administration (reference value: 17.61 to 19.82 mg).
The next assay relates to J774.A1. As to the kind of experiment: Antiinflammatory activity in mouse J774A.1 cells LPS-induced NO production at 25 ug/ml incubated for 2 hrs followed by LPS-stimulation measured after 24 hrs by Griess assay relative to control.

For `COC(=O)Cn1cccc1C=O`, the “inhibition (INH)” value in the assay on Mus musculus [1] came to 33.73%. For the same compound, the Activity in the assay with Mus musculus [2] is given as 11.87 mg.
For the compound `COC(=O)C1=C(c2ccc(Br)cc2)c2cccn2C1=O`, the “inhibition (INH)” value in the assay on Mus musculus [3] came out at 29.73%; in the assay with Mus musculus [1] it was 40.88%; in the assay with Mus musculus [6], 8.46%. The Activity in the assay on Mus musculus [2] is 11.72 mg; with Mus musculus [4] it was “Dose-dependent effect”; in the assay on Mus musculus [5] it was 13.93 mg; in the assay with Mus musculus [7], 18.14 mg. Besides, in the assay with Mus musculus [4], the ED50 turned out to be 3.23 mg.
Regarding `COc1ccc2c(c1)c(CC(=O)O)c(C)n2C(=O)c1ccc(Cl)cc1` [INDOMETHACIN], the “inhibition (INH)” value in the assay with Mus musculus [3] is listed as 41.97 - 52.37%; with Mus musculus [1], 41.47 - 61.1%; in the assay with Mus musculus [6], 32.12 - 41.44%. In addition, the Activity in the assay on Mus musculus [2] was 6.99 to 10.49 mg; in the assay with Mus musculus [4], “Dose-dependent effect”; in the assay with J774.A1 it was 64.63%; in the assay on Mus musculus [5], 9.01 to 9.44 mg; in the assay on Mus musculus [7], 1.22 to 11.51 mg. For the same compound, the ED50 in the assay with Mus musculus [4] was in the range of 1.07 to 1.29 mg.
For the compound `COC(=O)/C(=C\N(C)C)n1cccc1C=O`, the “inhibition (INH)” value in the assay on Mus musculus [1] is 21.37%. Besides, the Activity in the assay with Mus musculus [2] is 14.09 mg.
`COC(=O)C1=C(c2ccc([N+](=O)[O-])cc2)c2cccn2C1=O`: the “inhibition (INH)” value with Mus musculus [3] is listed as 24.1%; in the assay on Mus musculus [1] it was 53.43%; with Mus musculus [6] it was 8.52%. Also, the Activity is 9.2 mg in the assay on Mus musculus [2], “Dose-dependent effect” in the assay with Mus musculus [4], 15.04 mg in the assay on Mus musculus [5] and 18.13 mg with Mus musculus [7]. The ED50 with Mus musculus [4] was found to be 1.86 mg.

The values are drawn from ChEMBL document CHEMBL4396953, “Synthesis and highly potent anti-inflammatory activity of licofelone- and ketorolac-based 1-arylpyrrolizin-3-ones” (2019).
